Test results: article PMC8587000, “Pyridinone Derivatives as Interesting Formyl Peptide Receptor (FPR) Agonists for the Treatment of Rheumatoid Arthritis” (Molecules, 2021)
Where two headings read alike, the source gives them in different places.

How the values were obtained:
[1] = tested on: rat model of rheumatoid arthritis; set-up: method as in PMID 32388428; conditions: dose of 30 mg/kg/day; cited from earlier work
[2] = tested on: human neutrophils (hPMN); set-up: method as in PMID 32388428; conditions: Ca2+ mobilization; cited from earlier work
[3] = tested on: CFA-treated rats; test: Paw pressure test in CFA-induced inflammatory arthritis; assay type: in vivo, rat; conditions: 10 mg/kg p.o. daily for 7 days, day 8 (24 h after last dose), CFA + vehicle 35.2 ± 1.6 g, sham + vehicle 66.4 ± 2.3 g, mean ± SEM, five rats
Method: (§1) Male Sprague Dawley rats (Envigo, Varese, Italy) weighing approximately 200–250 g at the beginning of the experimental procedure were used. Animals were housed in Ce.S.A.L. (Centro Stabulazione Animali da Laboratorio, University of Florence) and used at least one week after their arrival. Four rats were housed per cage (size 26 × 41 cm^2); animals were fed a standard laboratory diet, given tap water ad libitum, and kept at 23 ± 1 °C with a 12 h light/dark cycle, light at 7 a.m. All animal manipulations were carried out according to the Directive 2010/63/EU of the European parliament and of the European Union council (22 September 2010) on the protection of animals used for scientific purposes. The ethical policy of the University of Florence complies with the Guide for the Care and Use of Laboratory Animals of the US National Institutes of Health (NIH Publication No. 85–23, revised 1996; University of Florence assurance number: A5278-01). Formal approval to conduct the experiments described was obtained from the Italian Ministry of Health (No. 517/2017, 06/04/2017) and from the Animal Subjects Review Board of the University of Florence. Experiments involving animals have been reported according to ARRIVE guidelines. […]
Nociceptive threshold was determined with an analgesimeter (Ugo Basile, Varese, Italy). […]

[4] = tested on: CFA-treated rats; test: Incapacitance test in CFA-induced inflammatory arthritis; assay type: in vivo, rat; conditions: 10 mg/kg p.o. daily for 7 days, day 8, CFA + vehicle 57.2 ± 4.0 g, sham + vehicle 3.6 ± 2.5 g, mean ± SEM, five rats
Method: as §1, with “A5278-01).” for “A5278-01). Formal approval to conduct the experiments described was obtained from the Italian Ministry of Health (No. 517/2017, 06/04/2017) and from the Animal Subjects Review Board of the University of Florence. Experiments involving animals have been reported according to ARRIVE guidelines.”
Weight bearing changes were measured using an Incapacitance Apparatus (Linton Instrumentation, UK), detecting changes in postural equilibrium after a hind limb injury. […] Data are expressed as the difference between the weight applied to the limb contralateral to the injury and the weight applied to the ipsilateral one (Δ weight).

[5] = molecular target: T1, FPR2 (Homo sapiens, UniProt P25090); set-up: method as in PMID 32388428; conditions: Ca2+ mobilization; read-out: FPR2-HL60 EC50; cited from earlier work
T1 construct: expressed in transfected cells; host or cells: HL60 (human promyelocytic leukemia), stably transfected; gift from Dr. Marie-Josephe Rabiet
T1 sequence (P25090 1-351): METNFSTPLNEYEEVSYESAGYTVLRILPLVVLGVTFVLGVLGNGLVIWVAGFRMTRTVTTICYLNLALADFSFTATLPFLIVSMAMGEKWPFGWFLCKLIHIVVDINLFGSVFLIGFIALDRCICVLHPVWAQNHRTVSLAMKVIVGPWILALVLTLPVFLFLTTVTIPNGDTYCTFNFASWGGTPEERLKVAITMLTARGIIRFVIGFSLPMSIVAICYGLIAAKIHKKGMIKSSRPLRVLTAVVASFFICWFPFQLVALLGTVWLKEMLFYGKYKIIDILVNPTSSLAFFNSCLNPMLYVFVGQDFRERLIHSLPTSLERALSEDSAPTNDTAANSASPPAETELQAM

[6] = molecular target: T2, FPR1 (Homo sapiens, UniProt P21462); set-up: method as in PMID 32388428; conditions: Ca2+ mobilization; read-out: FPR1-HL60 EC50; cited from earlier work
T2 construct: expressed in transfected cells; host or cells: HL60 (human promyelocytic leukemia), stably transfected; gift from Dr. Marie-Josephe Rabiet
T2 sequence (P21462 1-350): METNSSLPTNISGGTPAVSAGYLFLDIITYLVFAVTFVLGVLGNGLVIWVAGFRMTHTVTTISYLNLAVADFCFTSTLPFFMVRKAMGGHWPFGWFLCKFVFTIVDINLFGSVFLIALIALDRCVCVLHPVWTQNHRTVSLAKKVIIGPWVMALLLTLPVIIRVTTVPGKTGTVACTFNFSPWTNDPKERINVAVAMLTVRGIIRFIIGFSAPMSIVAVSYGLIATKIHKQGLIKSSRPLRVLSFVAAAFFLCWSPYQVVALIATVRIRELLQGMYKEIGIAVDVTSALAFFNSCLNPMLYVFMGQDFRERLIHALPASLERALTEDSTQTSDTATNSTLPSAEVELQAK

[7] = molecular target: T1, FPR2; test: Ca2+ mobilization in FPR2-transfected HL60 cells; assay type: cell-based
Method: (§2) Human promyelocytic leukemia HL60 cells stably transfected with FPR1 (FPR1-HL60 cells) or FPR2 (FPR2-HL60 cells) (kind gift from Dr. Marie-Josephe Rabiet, Université Joseph Fourier, Grenoble, France) were cultured in RPMI 1640 medium supplemented with 10% heat-inactivated fetal calf serum, 10 mM HEPES, 100 μg/mL streptomycin, 100 U/mL penicillin, and G418 (1 mg/mL). G418 was removed in the last round of culture before assays were performed.

[8] = tested on: model of antigen-induced arthritis; set-up: method as in PMID 33493655, PMID 30419493; conditions: increasing neutrophil apoptosis and efferocytosis; cited from earlier work
[9] = tested on: human neutrophils (hPMN); test: Ca2+ mobilization in human neutrophils (hPMN); assay type: cell-based; conditions: Neutrophil
Excerpt: Blood was collected from healthy donors in accordance with a protocol approved by the Institutional Review Board at Montana State University. Neutrophils were purified from the blood using dextran sedimentation, followed by Histopaque 1077 gradient separation and hypotonic lysis of red blood cells. Isolated neutrophils were washed twice and resuspended in HBSS^-. Neutrophil preparations were routinely >95% pure, as determined by light microscopy, and >98% viable, as determined by trypan blue exclusion.
Changes in intracellular Ca^2+ were measured with a FlexStation II scanning fluorometer (Molecular Devices, Sunnyvale, CA, USA). The cells, suspended in Hank’s balanced salt solution without Ca^2+ and Mg^2+ but with 10 mM HEPES (HBSS^−), were loaded with 1.25 μg/mL Fluo-4 AM dye and incubated for 30 min in the dark at 37 °C. After dye loading, the cells were washed with HBSS^- containing 10 mM HEPES, resuspended in HBSS^+ containing Ca^2+, Mg^2+, and 10 mM HEPES (HBSS^+), and aliquoted into the wells of flat-bottom, half-area-well black microtiter plates (2 × 10^5 cells/well). For the evaluation of direct agonist activity, compounds of interest were added from a source plate containing dilutions of test compounds in HBSS^+, and changes in fluorescence were monitored (λex = 485 nm, λem = 538 nm) every 5 s for 240 s at room temperature after the automated addition of compounds. Maximum change in fluorescence during the first 3 min, expressed in arbitrary units over baseline, was used to determine a response. […] Curve fitting (5–6 points) and calculation of median effective inhibitory concentrations (IC50) were performed by nonlinear regression analysis of the dose–response curves generated using Prism 9 (GraphPad Software, Inc., San Diego, CA, USA).

[10] = molecular target: T2, FPR1; test: Ca2+ mobilization in FPR1-transfected HL60 cells; assay type: cell-based
Method: as §2

[11] = tested on: animal models (collagen-induced and antigen-induced arthritis) of RA; set-up: method as in PMID 16697190, PMID 29879657; conditions: dose of 30 mg/kg (i.p.); cited from earlier work

For COc1cccc(-c2cc(C#N)c(=O)n(CC(=O)Nc3ccc(Br)cc3)c2C)c1 [AMC3], the “effect on pain hypersensitivity” value [1] is given as “completely control pain hypersensitivity”, the EC50 [2] is given as 390 ± 170 nM and the “pain threshold (paw pressure test)” value [3] is given as 52.4 ± 2.8 g. For the same compound, the “postural unbalance, Δ Weight (incapacitance test)” value [4] was 34.6 ± 3.8 g.

In the case of CCOC(=O)c1cc(C#N)c(=O)n(CC(=O)Nc2ccc(Br)cc2)c1C [AMC4, reference compound], the EC50 [2] is given as 830 ± 240 nM, the EC50 [5] is given as 380 ± 90 nM and the EC50 [6] is given as 3000 ± 400 nM. For the same compound, the “selectivity index (SI) FPR1/FPR2” value ([7]; ratio of EC50 FPR1-HL60 / FPR2-HL60) was 8.

For CCC[C@@H](O)c1c(/C=C/[C@@H](O)[C@@H](O)CCCC(=O)OC)nc(C)n1C [AT-01-KG], the anti-inflammatory activity [8] is given as “anti-inflammatory activity”.

With Cc1c(-c2cccc(O)c2)cc(C#N)c(=O)n1CC(=O)Nc1ccc(Br)cc1 [Compound 14a, N-(4-Bromophenyl)-2-[3-cyano-5-(3-hydroxyphenyl)-6-methyl-2-oxopyridin-1(2H)-yl] acetamide] the melting point was 282 to 284 °C (dec.), the EC50 [9] was 3700 ± 700 nM and the Emax ([9]; read-out: hPMN Efficacy (converted)) was 130%. It also gave an EC50 [10] of 230 ± 60 nM, an Emax ([10]; HL-60, read-out: FPR1-HL60 Efficacy (converted)) of 115% and an EC50 [7] of 230 ± 20 nM. It also gave an Emax ([7]; HL-60, read-out: FPR2-HL60 Efficacy (converted)) of 150%.

For CC(C)c1c(NC(=O)Nc2ccc(Cl)cc2)c(=O)n(-c2ccccc2)n1C [Cpd43], the “effect on arthritis (tissue inflammation, cartilage damage, synovitis)” value [11] is listed as “significantly reducing the tissue inflammation, cartilage damage, and synovitis”.
